The source of these data is patent US20250368649A1, “TETRAHYDROPYRIDOPYRIMIDINE PAN-KRAS INHIBITORS” (Mirati Therapeutics, Inc., priority 2022, published 2025).

One test has as its target KRas WT (Homo sapiens, UniProt P01116). The experiment in a line: KRas binding assay (TR-FRET displacement), KRas WT. The note with it: TR-FRET displacement.
A further test addresses KRas G13D (Homo sapiens, UniProt P01116, G13D). It counts as binding. The note with it: TR-FRET displacement, read-out: Binding to KRas (IC50 nM) G13D. (Time-resolved FRET reads energy transfer from a long-lived donor to a nearby acceptor.)
The target of a further test is KRas G12S (Homo sapiens, UniProt P01116, G12S). It counts as binding. The note with it: TR-FRET displacement, read-out: Binding to KRas (IC50 nM) G12S.
KRas G12S, sequence (P01116 1-169 isoform P01116-2 G12S): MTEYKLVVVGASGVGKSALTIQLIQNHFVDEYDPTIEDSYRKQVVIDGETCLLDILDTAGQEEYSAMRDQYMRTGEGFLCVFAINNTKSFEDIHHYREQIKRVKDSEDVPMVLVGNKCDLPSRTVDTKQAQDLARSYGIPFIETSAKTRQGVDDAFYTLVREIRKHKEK
Another test addresses KRas G12A (Homo sapiens, UniProt P01116, G12A). It counts as binding. The note with it: TR-FRET displacement, read-out: Binding to KRas (IC50 nM) G12A.
The target of another test is KRas G12C (Homo sapiens, UniProt P01116, G12C). In kind it is binding. The conditions noted are these: TR-FRET displacement, read-out: Binding to KRas (IC50 nM) G12C.
KRas G12C, sequence (P01116 1-169 isoform P01116-2 G12C): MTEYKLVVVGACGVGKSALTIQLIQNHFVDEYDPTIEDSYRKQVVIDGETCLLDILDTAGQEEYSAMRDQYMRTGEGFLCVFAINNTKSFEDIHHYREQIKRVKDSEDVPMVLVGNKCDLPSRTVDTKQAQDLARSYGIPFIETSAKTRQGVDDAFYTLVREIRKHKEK
A further test addresses KRas Q61H (Homo sapiens, UniProt P01116, Q61H). As to the kind of experiment: KRas binding assay (TR-FRET displacement), KRas Q61H. The note with it: TR-FRET displacement.
In a further test the target is KRas G12V (Homo sapiens, UniProt P01116, G12V). The experiment in a line: biochemical. The conditions noted are these: Binding to KRas (IC50 nM) G12V, TR-FRET displacement, KRas G12V.
KRas G12V, sequence (P01116 1-169 isoform P01116-2 G12V): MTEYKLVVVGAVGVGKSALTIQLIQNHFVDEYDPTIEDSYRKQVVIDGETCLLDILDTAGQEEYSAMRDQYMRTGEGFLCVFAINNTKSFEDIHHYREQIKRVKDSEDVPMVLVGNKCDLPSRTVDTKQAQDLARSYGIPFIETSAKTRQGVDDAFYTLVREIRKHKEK
Another test concerns the target KRas G12D (Homo sapiens, UniProt P01116, G12D). As to the kind of experiment: biochemical. The conditions noted are these: Binding to KRas (IC50 nM) G12D, TR-FRET displacement, KRas G12D.

KRas G12D, sequence (P01116 1-169 isoform P01116-2 G12D): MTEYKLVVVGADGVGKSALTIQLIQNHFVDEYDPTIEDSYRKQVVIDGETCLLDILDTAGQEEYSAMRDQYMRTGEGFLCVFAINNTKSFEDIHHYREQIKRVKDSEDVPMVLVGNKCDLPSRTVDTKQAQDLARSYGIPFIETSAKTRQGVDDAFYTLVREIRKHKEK
KRas Q61H, sequence (P01116 1-169 isoform P01116-2 Q61H): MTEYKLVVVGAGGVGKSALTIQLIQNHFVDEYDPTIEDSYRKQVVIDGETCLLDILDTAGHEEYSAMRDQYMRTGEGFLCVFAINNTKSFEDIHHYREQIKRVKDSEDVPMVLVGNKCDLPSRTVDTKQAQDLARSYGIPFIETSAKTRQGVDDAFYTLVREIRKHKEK
KRas G13D, sequence (P01116 1-169 isoform P01116-2 G13D): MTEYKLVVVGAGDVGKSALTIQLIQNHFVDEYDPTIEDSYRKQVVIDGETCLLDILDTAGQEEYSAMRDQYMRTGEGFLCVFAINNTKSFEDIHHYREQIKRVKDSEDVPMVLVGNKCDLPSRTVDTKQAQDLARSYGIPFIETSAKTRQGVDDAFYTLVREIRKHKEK
KRas WT, sequence (P01116 1-169 isoform P01116-2): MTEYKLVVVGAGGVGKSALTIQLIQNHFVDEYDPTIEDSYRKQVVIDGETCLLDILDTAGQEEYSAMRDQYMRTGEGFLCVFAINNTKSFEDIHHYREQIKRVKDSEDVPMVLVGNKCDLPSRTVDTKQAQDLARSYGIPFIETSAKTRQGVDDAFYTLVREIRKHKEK
KRas G12A, sequence (P01116 1-169 isoform P01116-2 G12A): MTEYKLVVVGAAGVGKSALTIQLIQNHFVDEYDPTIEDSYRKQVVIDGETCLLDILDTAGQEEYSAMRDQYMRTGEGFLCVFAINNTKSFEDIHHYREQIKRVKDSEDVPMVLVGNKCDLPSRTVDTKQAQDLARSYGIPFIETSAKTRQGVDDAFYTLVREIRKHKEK

The IC50 is the concentration at which inhibition is half-maximal. In the case of `CCc1cccc2cccc(N3CCc4c(nc(OCC5(CN(C)C)CC5)nc4NCc4nnn(C(C)(C)C)n4)C3)c12` [Example 550, N-((2-(tert-butyl)-2H-tetrazol-5-yl)methyl)-2-((1-((dimethylamino)methyl)cyclopropyl)methoxy)-7-(8-ethylnaphthalen-1-yl)-5,6,7,8-tetrahydropyrido[3,4-d]pyrimidin-4-amine], the IC50 at KRas WT is 32400 nM; on KRas G13D, 35300 nM; on KRas G12S it was 28800 nM; on KRas G12A, 33600 nM; at KRas G12C, 16300 nM; on KRas Q61H, 27100 nM. Also, the half-maximal inhibitory concentration (IC50) amounted to 8180 nM at KRas G12V and 17600 nM at KRas G12D.
Turning to `CCc1cccc2cccc(N3CCc4c(nc(OCC5(CN(C)C)CC5)nc4N(C)CC4CCC(=O)N4)C3)c12` (centres unmarked) [Example 551, 5-(((2-((1-((dimethylamino)methyl)cyclopropyl)methoxy)-7-(8-ethylnaphthalen-1-yl)-5,6,7,8-tetrahydropyrido[3,4-d]pyrimidin-4-yl)(methyl)amino)methyl)pyrrolidin-2-one], the IC50 amounted to 6320 nM at KRas WT; 9890 nM on KRas G13D; 11900 nM at KRas G12S; 11700 nM on KRas G12A; 6900 nM on KRas G12C; 10700 nM on KRas Q61H. Besides, the IC50 at KRas G12V was found to be 2520 nM; at KRas G12D, 18300 nM.
Consider `CCc1cccc2cccc(N3CCc4c(nc(OCC5(CN(C)C)CC5)nc4N4CCN(c5ccc(=O)[nH]n5)CC4)C3)c12` [Example 552, 6-(4-(2-((1-((dimethylamino)methyl)cyclopropyl)methoxy)-7-(8-ethylnaphthalen-1-yl)-5,6,7,8-tetrahydropyrido[3,4-d]pyrimidin-4-yl)piperazin-1-yl)pyridazin-3(2H)-one], for which the IC50 is 50400 nM at KRas WT; over 100000 nM on KRas G13D; 51000 nM at KRas G12S; 51400 nM at KRas G12A; 26100 nM at KRas G12C; 22900 nM at KRas Q61H. The IC50 on KRas G12V worked out at 5640 nM; at KRas G12D it was 18400 nM.
Take `CCc1cccc2cccc(N3CCc4c(nc(OCC5(CN(C)C)CC5)nc4N4CC(CO)C(c5cncn5C)C4)C3)c12` (centres unmarked) [Example 553, (1-(2-((1-((dimethylamino)methyl)cyclopropyl)methoxy)-7-(8-ethylnaphthalen-1-yl)-5,6,7,8-tetrahydropyrido[3,4-d]pyrimidin-4-yl)-4-(1-methyl-1H-imidazol-5-yl)pyrrolidin-3-yl)methanol]: the IC50 on KRas WT turned out to be 5060 nM; at KRas G13D it was 7560 nM; at KRas G12S, 3310 nM; at KRas G12A, 2270 nM; at KRas G12C, 1580 nM; at KRas Q61H, 7300 nM. The IC50 was found to be 2760 nM at KRas G12V and 18500 nM on KRas G12D.
In the case of `CCc1cccc2cccc(N3CCc4c(nc(OCC5(CN(C)C)CC5)nc4NCCc4c(C)n[nH]c4C)C3)c12` [Example 554, N-(2-(3,5-dimethyl-1H-pyrazol-4-yl)ethyl)-2-((1-((dimethylamino)methyl)cyclopropyl)methoxy)-7-(8-ethylnaphthalen-1-yl)-5,6,7,8-tetrahydropyrido[3,4-d]pyrimidin-4-amine], the IC50 came to 2750 nM on KRas WT; 2660 nM on KRas G13D; 1750 nM on KRas G12S; 2420 nM on KRas G12A; 803 nM at KRas G12C; 1210 nM at KRas Q61H. Moreover, the concentration for half-maximal inhibition (IC50) on KRas G12V was 3830 nM; at KRas G12D, 18600 nM.
`CCc1cccc2cccc(N3CCc4c(nc(OCC5(CN(C)C)CC5)nc4NCCN4CCNC4=O)C3)c12` [Example 555, 1-(2-((2-((1-((dimethylamino)methyl)cyclopropyl)methoxy)-7-(8-ethylnaphthalen-1-yl)-5,6,7,8-tetrahydropyrido[3,4-d]pyrimidin-4-yl)amino)ethyl)imidazolidin-2-one]: the IC50 at KRas WT turned out to be 12200 nM; on KRas G13D, 16400 nM; on KRas G12S, 15000 nM; on KRas G12A it was 11900 nM; at KRas G12C, 9190 nM; on KRas Q61H, 19700 nM. In addition, the IC50 on KRas G12V is 6180 nM; at KRas G12D, 19000 nM.
For the molecule `CCc1cccc2cccc(N3CCc4c(nc(OCC5(CN(C)C)CC5)nc4NCc4ncn(-c5ccccc5)n4)C3)c12` [Example 556, 2-((1-((dimethylamino)methyl)cyclopropyl)methoxy)-7-(8-ethylnaphthalen-1-yl)-N-((1-phenyl-1H-1,2,4-triazol-3-yl)methyl)-5,6,7,8-tetrahydropyrido[3,4-d]pyrimidin-4-amine], the IC50 at KRas WT turned out to be 22900 nM; at KRas G13D, 31700 nM; on KRas G12S it was 26400 nM; at KRas G12A, 26600 nM; at KRas G12C, 16800 nM; on KRas Q61H, 44100 nM. The results for the IC50 at KRas G12V and at KRas G12D were 7060 nM and 19900 nM, respectively.
`CCc1cccc2cccc(N3CCc4c(nc(OCC5(CN(C)C)CC5)nc4N4CCOC(c5nccs5)C4)C3)c12` [Example 557, rel-(R)-1-(1-(((7-(8-(dimenaphthalen-1-yl)-4-(2-(thiazol-2-yl)morpholino)-5,6,7,8-tetrahydropyrido[3,4-d]pyrimidin-2-yl)oxy)methyl)cyclopropyl)-N,N-dimethylmethanamine]: the IC50 on KRas WT was determined as 67900 nM; on KRas G13D it was 96200 nM; at KRas G12S, 83200 nM; on KRas G12A, 71600 nM; at KRas G12C, 44300 nM; on KRas Q61H, 77100 nM. In addition, the IC50 at KRas G12V came out at 5870 nM; on KRas G12D, 20800 nM.
Take `CCc1cccc2cccc(N3CCc4c(nc(OCC5(CN(C)C)CC5)nc4N(C)CCn4ccnc4)C3)c12` [Example 558, N-(2-(1H-imidazol-1-yl)ethyl)-2-((1-((dimethylamino)methyl)cyclopropyl)methoxy)-7-(8-ethylnaphthalen-1-yl)-N-methyl-5,6,7,8-tetrahydropyrido[3,4-d]pyrimidin-4-amine]: the half-inhibitory concentration (IC50) was 978 nM at KRas WT; 1390 nM on KRas G13D; 505 nM on KRas G12S; 825 nM at KRas G12A; 492 nM at KRas G12C; 1710 nM at KRas Q61H. Also, the IC50 at KRas G12V worked out at 2920 nM; on KRas G12D it was 23000 nM.
Take `CCc1cccc2cccc(N3CCc4c(nc(OCC5(CN(C)C)CC5)nc4N4CCCCC(CCOC)C4)C3)c12` (centres unmarked) [Example 559, 1-(1-(((7-(8-ethylnaphthalen-1-yl)-4-(3-(2-methoxyethyl)azepan-1-yl)-5,6,7,8-tetrahydropyrido[3,4-d]pyrimidin-2-yl)oxy)methyl)cyclopropyl)-N,N-dimethylmethanamine]: the IC50 turned out to be 11900 nM at KRas WT; 45100 nM on KRas G13D; 29400 nM on KRas G12S; 11900 nM at KRas G12A; 12000 nM on KRas G12C; 23300 nM on KRas Q61H. In addition, the IC50 at KRas G12V was determined as 9180 nM; on KRas G12D it was 24700 nM.
With `CCc1cccc2cccc(N3CCc4c(nc(OCC5(CN(C)C)CC5)nc4N(C)CC4CC(F)C4)C3)c12` (centres unmarked) [Example 560, 2-((1-((dimethylamino)methyl)cyclopropyl)methoxy)-7-(8-ethylnaphthalen-1-yl)-N-((3-fluorocyclobutyl)methyl)-N-methyl-5,6,7,8-tetrahydropyrido[3,4-d]pyrimidin-4-amine], the IC50 on KRas WT is 6020 nM; on KRas G13D, 18400 nM; on KRas G12S, 7920 nM; at KRas G12A, 6870 nM; at KRas G12C, 5460 nM; on KRas Q61H, 17600 nM. Moreover, the IC50 amounted to 3730 nM at KRas G12V and 24800 nM on KRas G12D.
As to `CCc1cccc2cccc(N3CCc4c(nc(OCC5(CN(C)C)CC5)nc4NCC4CN(c5ncccn5)C4)C3)c12` [Example 561, 2-((1-((dimethylamino)methyl)cyclopropyl)methoxy)-7-(8-ethylnaphthalen-1-yl)-N-((1-(pyrimidin-2-yl)azetidin-3-yl)methyl)-5,6,7,8-tetrahydropyrido[3,4-d]pyrimidin-4-amine], the IC50 at KRas WT was determined as 1280 nM; on KRas G13D, 2190 nM; at KRas G12S, 536 nM; on KRas G12A, 994 nM; on KRas G12C, 557 nM; on KRas Q61H, 1740 nM. The IC50 was 6110 nM at KRas G12V and 25700 nM at KRas G12D.
As for `CCc1cccc2cccc(N3CCc4c(nc(OCC5(CN(C)C)CC5)nc4N4CCOC(c5nnc(C(C)C)o5)C4)C3)c12` (centres unmarked) [Example 562, 1-(1-(((7-(8-ethylnaphthalen-1-yl)-4-(2-(5-isopropyl-1,3,4-oxadiazol-2-yl)morpholino)-5,6,7,8-tetrahydropyrido[3,4-d]pyrimidin-2-yl)oxy)methyl)cyclopropyl)-N,N-dimethylmethanamine], the IC50 on KRas WT is 10700 nM; on KRas G13D it was 21700 nM; on KRas G12S, 6600 nM; on KRas G12A, 7970 nM; at KRas G12C, 4270 nM; on KRas Q61H it was 14000 nM. Besides, the IC50 at KRas G12V turned out to be 6370 nM; at KRas G12D, 25900 nM.
